# Data from patent US20240294467A1, “USP9X Inhibitors” (ProDeg, LLC, priority 2021, published 2024).
# Where two headings read alike, the source gives them in different places. Residues, ends and D or L forms follow the SMILES beside them. *: point of attachment. Cbz = O=C(OCc1ccccc1)*
# Key:
# [1] = test system: MDA-MB-231 cells; assay: WST-1 cell viability assay; type: cell-based; settings: Homo sapiens
# Description: (§1) Compound Compound 9A was tested for the ability to inhibit the proliferation of Mia-Paca-2 pancreatic cancer cells. Mia-Paca-2 and MDA-MB-231 cells were seeded into the wells of a 96 well tissue culture plate in complete medium (10% fetal calf serum) and incubated overnight at 37° C./5% CO2). The medium was exchanged for fresh medium containing varying concentrations of Compound 9A and the plate was incubated for 72 hours at 37° C./5% CO2. The viability of cells at the end of this incubation was assessed with the WST-1 reagent. To 10 ml of warm (37° C.) complete medium, 1 ml WST-1 reagent was added. The medium from the wells of the plate with the Mia-Paca-2 cells was removed and replaced with 100 μL of the WST-1 reagent in complete medium. The plate was incubated at 37 37° C./5% CO2. At timed intervals the absorbance at 450 nm was determined for each well in a UVNis plate reader. For each well the slope of the plot of the absorbance 450 nm vs time was determined. The readings were normalized to that of the wells for the untreated control and a dose-response curve was plotted. A fit to the data was made from a four parameter, variable slope program (GraphPad Prism) and the IC50 was determined.
# The TNBC cell line MDA-MB-231 express high levels of Mcl-1 and USP9X in addition to Bcl-2 and Bcl-xL. MDA-MB-231 cells were treated with ABT737 for 72 hours at varying concentrations and underwent western blot analysis.
# [2] = test system: U937 cells; assay: WST-1 cell viability assay; type: cell-based; settings: Homo sapiens, U-937, U937 cells
# Description: as §1
# The effect of Compound 7A on U937 cells was assessed using the same experiment described in the Inhibitory Activities against the Proliferation of Mia-Paca-2 and Other Cancer Cells section above. In response to treatment with Compound 7A, proliferation of U937 leukemia cells was inhibited and induced apoptosis was obsessed by trypan blue staining.
# U937 cells were treated with the Bcl-2/Bcl-xL inhibitor ABT737 72 hours at varying concentrations and underwent western blot analysis.
# [3] = test system: Mia-Paca-2 pancreatic cancer cells; assay: WST-1 cell viability assay; type: cell-based; settings: for cell viability: Mia-Paca-2 pancreatic cells
# Description: as §1
# (§2) The same procedures were also applied to the compounds Compound 7A, Compound 6A, and Compound 8A to test their inhibitory activities against RKO colon, Mia-Paca-2 pancreatic and BT-549 cancer cells.
# [4] = test system: RKO colon cells; assay: WST-1 cell viability assay; type: cell-based
# Description: as §1, §2
# [5] = test system: BT-549 cancer cells; assay: WST-1 cell viability assay; type: cell-based, human; settings: BT-549 cells
# Description: as §1, §2
# [6] = biological target: T1, USP9X (Homo sapiens (Human), UniProt Q93008); assay: Steady-state enzyme inhibition kinetics of USP9X; type: biochemical
# Source text: The data were fit to a general model for enzyme inhibition (FIG. 1E) so the values of the parameters determined from the assays specified the mode of inhibition. For example, in the case of α=1 and β=0, it corresponded to purely non-competitive inhibition. For α=infinity and p=1, it corresponded to purely competitive inhibition. The values of all the parameters, KS, KI, kcat, α, and β could be determined from the steady state measurements. The enzyme reactions were set up as described in the Inhibiting the catalytic activity of USP9X section. The concentration of the substrate ubqiutin-rhodamine110 was varied. The initial rates of the reactions were determined at several concentrations of the inhibitor Compound 2A. In order to determine the values of the parameters KS and kcat, the reaction rates in the absence of the inhibitor Compound 2A, the initial reaction rate data were fit to the standard Michaelis-Menten equation v=Vmax [S]/(Km+[S]). The values of α and β could then be determined by fitting the initial rate data of the enzyme reaction at various concentrations of Compound 2A to a modified version of the Michaelis-Menten equation, designating both Vmax and KS apparent to distinguish the apparent values of the parameters determined from these plots to the true values for these parameters determined from the steady state kinetics in the absence of Compound 2A. The values of α and β could be determined from the variation of the slopes and intercepts of the series of double reciprocal plots of 1/v versus 1/[S] for each concentration of Compound 2A. […] The two values determined for KI were from the two different plots.
# The two values for KI were determined by two different methods for determining this parameter from the kinetic data: 1 represented a value determined from the slope of the 1/A intercept vs 1/[I] plot; 2 represented a value determined from the y intercept of the 1/A slope vs 1/[I] plot. […] Only the values of the parameters varied for the compounds.
# Target sequence in this assay (Q93008 whole entry): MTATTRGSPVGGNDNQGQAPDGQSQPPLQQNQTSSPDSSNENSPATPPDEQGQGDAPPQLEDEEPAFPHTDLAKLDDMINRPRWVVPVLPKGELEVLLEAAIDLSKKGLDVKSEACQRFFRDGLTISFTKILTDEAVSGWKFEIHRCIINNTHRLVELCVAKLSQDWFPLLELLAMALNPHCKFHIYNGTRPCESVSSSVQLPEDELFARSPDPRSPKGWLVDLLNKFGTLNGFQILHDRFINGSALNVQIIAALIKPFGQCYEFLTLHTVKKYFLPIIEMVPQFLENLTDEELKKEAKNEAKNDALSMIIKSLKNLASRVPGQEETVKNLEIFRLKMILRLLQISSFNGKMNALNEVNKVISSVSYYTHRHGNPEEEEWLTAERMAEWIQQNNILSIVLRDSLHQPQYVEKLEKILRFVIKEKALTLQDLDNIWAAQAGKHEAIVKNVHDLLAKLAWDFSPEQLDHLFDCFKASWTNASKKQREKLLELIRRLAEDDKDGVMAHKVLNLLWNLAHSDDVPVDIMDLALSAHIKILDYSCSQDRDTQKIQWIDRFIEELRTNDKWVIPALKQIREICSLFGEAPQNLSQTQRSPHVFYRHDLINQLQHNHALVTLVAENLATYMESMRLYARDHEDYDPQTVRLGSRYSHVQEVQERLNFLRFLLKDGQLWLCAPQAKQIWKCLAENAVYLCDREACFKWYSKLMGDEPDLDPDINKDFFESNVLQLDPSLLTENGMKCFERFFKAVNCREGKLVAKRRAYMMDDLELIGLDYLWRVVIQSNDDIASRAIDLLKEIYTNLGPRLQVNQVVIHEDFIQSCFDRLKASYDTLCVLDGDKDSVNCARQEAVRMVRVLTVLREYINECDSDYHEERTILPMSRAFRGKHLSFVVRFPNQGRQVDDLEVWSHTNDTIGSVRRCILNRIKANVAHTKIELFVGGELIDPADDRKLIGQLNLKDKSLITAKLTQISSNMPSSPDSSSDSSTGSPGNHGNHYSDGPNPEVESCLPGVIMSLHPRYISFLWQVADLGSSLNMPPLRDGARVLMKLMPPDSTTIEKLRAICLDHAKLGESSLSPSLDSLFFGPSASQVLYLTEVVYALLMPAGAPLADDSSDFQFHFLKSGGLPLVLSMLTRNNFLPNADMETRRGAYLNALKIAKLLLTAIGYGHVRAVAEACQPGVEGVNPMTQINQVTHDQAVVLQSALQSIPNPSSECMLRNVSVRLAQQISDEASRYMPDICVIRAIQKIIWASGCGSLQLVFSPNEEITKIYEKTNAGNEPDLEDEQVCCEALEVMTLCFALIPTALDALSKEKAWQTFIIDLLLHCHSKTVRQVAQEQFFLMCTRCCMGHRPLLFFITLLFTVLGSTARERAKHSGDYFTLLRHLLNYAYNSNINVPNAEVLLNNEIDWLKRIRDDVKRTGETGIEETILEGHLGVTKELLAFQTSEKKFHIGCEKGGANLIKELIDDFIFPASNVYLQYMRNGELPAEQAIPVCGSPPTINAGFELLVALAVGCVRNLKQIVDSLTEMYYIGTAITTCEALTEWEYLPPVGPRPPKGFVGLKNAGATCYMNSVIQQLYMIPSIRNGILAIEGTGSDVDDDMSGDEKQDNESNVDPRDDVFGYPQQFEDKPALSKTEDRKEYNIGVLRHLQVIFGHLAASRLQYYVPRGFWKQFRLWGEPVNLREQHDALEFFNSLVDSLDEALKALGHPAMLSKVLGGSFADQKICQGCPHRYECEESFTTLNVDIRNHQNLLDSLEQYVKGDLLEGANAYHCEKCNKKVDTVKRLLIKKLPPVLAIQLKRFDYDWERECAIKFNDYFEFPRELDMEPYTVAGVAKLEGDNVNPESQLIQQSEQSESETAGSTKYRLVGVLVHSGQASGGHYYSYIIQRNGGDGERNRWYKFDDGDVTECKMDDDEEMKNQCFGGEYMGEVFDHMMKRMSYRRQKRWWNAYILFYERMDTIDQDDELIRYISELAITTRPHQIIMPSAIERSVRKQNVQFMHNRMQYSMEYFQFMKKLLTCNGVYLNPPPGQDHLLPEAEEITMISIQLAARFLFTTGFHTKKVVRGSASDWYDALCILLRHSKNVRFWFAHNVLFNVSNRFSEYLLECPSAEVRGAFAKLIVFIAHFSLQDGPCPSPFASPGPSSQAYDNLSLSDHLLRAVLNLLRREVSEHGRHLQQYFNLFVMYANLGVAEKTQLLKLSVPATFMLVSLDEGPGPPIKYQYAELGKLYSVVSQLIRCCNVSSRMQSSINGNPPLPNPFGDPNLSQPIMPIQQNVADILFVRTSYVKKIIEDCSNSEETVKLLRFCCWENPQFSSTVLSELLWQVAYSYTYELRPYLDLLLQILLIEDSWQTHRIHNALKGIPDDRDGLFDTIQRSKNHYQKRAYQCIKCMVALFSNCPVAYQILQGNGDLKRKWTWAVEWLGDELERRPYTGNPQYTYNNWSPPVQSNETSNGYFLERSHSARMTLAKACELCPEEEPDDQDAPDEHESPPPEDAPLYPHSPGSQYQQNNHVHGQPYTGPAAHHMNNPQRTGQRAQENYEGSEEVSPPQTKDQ
# [7] = biological target: T1, USP9X; assay: USP9X enzyme activity assay, ubiquitin-rhodamine110 substrate
# Target sequence in this assay (Q93008 whole entry): as above
# [8] = biological target: T1, USP9X; settings: cited from earlier work
# Target sequence in this assay (Q93008 whole entry, species assumed): as the sequence (Q93008 whole entry) above
# [9] = biological target: USP5 (Homo sapiens (Human), UniProt P45974); settings: cited from earlier work
# USP5, sequence (P45974 whole entry, species assumed): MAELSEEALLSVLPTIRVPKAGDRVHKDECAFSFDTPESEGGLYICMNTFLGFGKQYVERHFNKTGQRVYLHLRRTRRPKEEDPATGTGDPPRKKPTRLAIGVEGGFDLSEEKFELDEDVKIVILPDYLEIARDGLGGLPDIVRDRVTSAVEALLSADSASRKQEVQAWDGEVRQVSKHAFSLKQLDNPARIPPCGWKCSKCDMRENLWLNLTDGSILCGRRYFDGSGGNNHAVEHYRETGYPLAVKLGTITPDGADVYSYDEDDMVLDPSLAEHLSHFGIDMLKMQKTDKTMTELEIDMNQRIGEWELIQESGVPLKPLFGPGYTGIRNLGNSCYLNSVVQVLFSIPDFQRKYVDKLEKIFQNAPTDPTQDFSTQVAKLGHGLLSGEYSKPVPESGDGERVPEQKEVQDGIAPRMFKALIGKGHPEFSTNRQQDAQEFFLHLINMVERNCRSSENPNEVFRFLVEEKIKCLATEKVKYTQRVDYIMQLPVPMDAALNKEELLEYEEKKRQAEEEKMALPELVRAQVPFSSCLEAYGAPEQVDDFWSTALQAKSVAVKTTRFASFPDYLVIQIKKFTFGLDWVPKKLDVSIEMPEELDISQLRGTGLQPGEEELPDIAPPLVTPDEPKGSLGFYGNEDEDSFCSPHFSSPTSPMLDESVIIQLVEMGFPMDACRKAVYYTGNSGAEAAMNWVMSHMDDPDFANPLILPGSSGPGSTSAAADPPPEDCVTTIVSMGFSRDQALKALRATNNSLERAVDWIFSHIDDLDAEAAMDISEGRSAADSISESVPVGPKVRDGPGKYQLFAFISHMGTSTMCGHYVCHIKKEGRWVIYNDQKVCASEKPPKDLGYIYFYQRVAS
# [10] = biological target: USP24 (Homo sapiens (Human), UniProt Q9UPU5); settings: cited from earlier work
# [11] = test system: Mcl-1; assay: Western blot of Mcl-1 in U937 cells; type: cell-based; settings: agent alone
# Description: After 24 hours treatment with Compound 7A, U937 cells were collected by centrifugation and whole cell lysates were prepared. These lysates were analyzed by Western blot to determine the level of Mcl-1. Western blot analysis was carried out as previously described (Wang et al., 2014 Journal of the American Society of Nephrology DOI: 10.1681/asn.2013060665). The band intensity for Mcl-1 in these samples were normalized to that of tubulin to correct for any inconsistencies in total protein in loading and processing the whole cell lysates.
# To investigate the mechanism of action, Western blot analysis was carried out to test the induced degradation of USP9X substrate Mcl-1 by the compounds under the effects of protein synthesis inhibitor cycloheximide and/or proteasome inhibitor MG132. U937 cells were treated with 10 μM cycloheximide for one hour, with 10 μM MG132 for one hour, with the combination of 10 μM cycloheximide and 10 μM MG132 for one hour, and with vehicle (DMSO) for one hour, respectively, prior to the treatment with Compound 5A for 24 hrs. The U937 cells were harvested after treatment and whole cell lysates were prepared. These lysates were analyzed by Western blot to determine the abundance of Mcl-1 as well as that of tubulin as a normalization control. […] The band intensity of the Mcl-1 in cells treated with cycloheximide alone (Lane 2) was reduced relative to that for tubulin. […] Global blockade of protein synthesis by cycloheximide led to a significant decrease in the expression levels, especially for short lived Mcl-1. The retention of a reduced portion of Mcl-1 indicated the immunity of this portion to proteasomal degradation. […] In contrast, the band intensity of Mcl-1 relative to that of tubulin increased upon treatment of U937 cells with the proteasome inhibitor MG132 (Lane 4). […] Together, the results of this Example are consistent with the compounds acting on the proposed mechanism that intracellular inhibition of the deubiquitylase activity of USP9X blocks its ability to rescue USP9X substrates such as Mcl-1 from proteasomal degradation. In other aspects, by varying the concentration ratios of the compound and proteasome inhibitor for treating cells, it was possible to achieve controlled degradation of a USP9X substrate so the substrate could decline to a desirable level rather than degrade entirely.
# [12] = 72 hours, single agent, read-out: IC50, cell viability
# [13] = read-out: USP9X IC50/UM, Table 8
molecule,measurement,setting,value
"CN(C)CC[C@H](CSc1ccccc1)Nc1ccc(S(=O)(=O)NC(=O)c2ccc(N3CCN(Cc4ccccc4-c4ccc(Cl)cc4)CC3)cc2)cc1[N+](=O)[O-] [ABT737, reference compound]",IC50,[1]; [12],8700 nM
same,IC50,"[1]; co-treated with 10 μM Compound 5A, read-out: IC50 of ABT737 with co-treatment",1800 nM
same,IC50,"[2]; 72-hour treatment, single agent, read-out: IC50, cell viability",3400 nM
same,IC50,"[2]; with 0.5 μM Compound 7A, read-out: IC50 of ABT737 with co-treatment",60 nM
CN1CCCCOc2ccc(cc2)C(=O)NCc2cccc(c2)C(=O)N[C@@H](CC(C)(C)C)C(=O)Nc2ccc(cc2)CCC1=O [Compound 6A],cell viability,[3],significant decreases
same,cell viability,[4],significant decreases
same,cell viability,[5],significant decreases
CN1CCCCOc2ccc(cc2)C(=O)NCc2ccc(F)c(c2)C(=O)N[C@@H](CC(C)(C)C)C(=O)Nc2ccc(cc2)CCC1=O [Compound 8A],cell viability,[3],significant decreases
same,cell viability,[4],significant decreases
same,cell viability,[5],significant decreases
CN1CCOc2ccc(c(F)c2)C(=O)NCc2cccc(c2)C(=O)N[C@@H](CC(C)(C)C)C(=O)Nc2ccc(cc2)CCN(C)C(=O)CC(C)(C)CC1=O [Compound 9A],IC50,"[3]; Homo sapiens, Mia-Paca-2 cells, 72 hours, read-out: IC50, inhibition of proliferation",10 nM
same,IC50,[1]; [12],2000 nM
CN1CCOc2ccc(c(F)c2)C(=O)NCc2ccc(F)c(c2)C(=O)N[C@@H](CC(C)(C)C)C(=O)Nc2ccc(cc2)CCN(C)C(=O)CC(C)(C)CC1=O [Compound 11A],KS,[6],0.91 µM
same,VMAX RFU/min,[6],408 RFU/min
same,α,[6],2
same,β,[6],0.88
same,Ki,"[6]; from the slope of the 1/Δ intercept vs 1/[I] plot, read-out: KI, nM (1)",7 nM
same,Ki,"[6]; from the y intercept of the 1/Δ slope vs 1/[I] plot, read-out: KI, nM (2)",69 nM
same,IC50,"[7]; read-out: IC50 for the inhibition of USP9X activity, ubiquitin-rhodamine110 substrate",48 nM
same,IC50,"[7]; read-out: USP9X IC50 nM, Table 2",48 nM
CNC(=O)c1cccc(CNC(=O)c2ccc(OCCNC(=O)CC(C)(C)CC(=O)NCCc3ccc(NC(=O)[C@H](CC(C)(C)C)NC(C)=O)cc3)cc2)c1 [Compound 71],USP9X IC50/UM,[7]; Table 8,>50 UM
CC(C)(C)C[C@H](NC(=O)c1cccc(CN)c1)C(=O)Nc1ccc(CCNC(=O)CC(C)(C)CC(=O)NCCOc2ccc(C(=O)O)cc2)cc1 [Compound 72],IC50,[7]; [13],29000 nM
CC(=O)NCc1cccc(C(=O)N[C@@H](CC(C)(C)C)C(=O)Nc2ccc(CCNC(=O)CC(C)(C)CC(=O)NCCOc3ccc(C(=O)O)cc3)cc2)c1 [Compound 73],IC50,[7]; [13],15000 nM
CNC(=O)c1ccc(OCCNC(=O)CC(C)(C)CC(=O)NCCc2ccc(NC(=O)[C@H](CC(C)(C)C)NC(=O)c3cccc(CNC(C)=O)c3)cc2)cc1 [Compound 74],IC50,[7]; [13],12000 nM
CCCC(NC(=O)/C(C#N)=C/c1nc(Cl)ccc1Cl)c1ccc(OCCN2CCOCC2)cc1 (stereo not drawn) [EOAI3402143],inhibits USP9X,[8],inhibits
same,inhibits USP5,[9],inhibits
same,inhibits USP24,[10],inhibits
"CC(C)C[C@@H](C=O)NC(=O)[C@H](CC(C)C)NC(=O)[C@H](CC(C)C)NC(=O)OCc1ccccc1 [MG132, reference compound] (Cbz-Leu-Leu-Leu-aldehyde)",band intensity of Mcl-1 relative to tubulin,[11],increased
"C[C@@H]1C[C@@H]([C@H](O)CC2CC(=O)NC(=O)C2)C(=O)[C@@H](C)C1 [cycloheximide, reference compound]",band intensity of Mcl-1 relative to tubulin,[11],reduced
ubiquitin aldehyde [reference compound],effect on USP9X activity,[7]; ubiquitin-rhodamine110 substrate,completely abolished
